Test results as given in patent publication US20260021092A1, “STRUCTURE-BASED DESIGN OF A NOVEL CLASS OF DRUGS FOR NEURODEGENERATIVE DISEASE” (The Regents of the University of California, priority 2022, published 2026).

Legend:
[1] = target: T1, MSA brain fibrils seeding HEK293T alpha-synuclein biosensor cells (Homo sapiens, UniProt P37840); experiment: Alpha-synuclein biosensor cell seeding assay, MSA brain fibrils; type: cell-based; details: sub micromolar concentrations, 48 hours pre-incubation
T1 construct: Extraction of sarkosyl-insoluble alpha-synuclein fibrils from neuropathologically confirmed brain samples of patients diagnosed with MSA; from tissue; host or cells: seed: MSA patient brain; reporter: stably transfected HEK293T cells from the Marc Diamond lab
Method: Next, we tested the efficacy of the compounds to mitigate the intracellular seeding of MSA fibrils in biosensor cells. Brain-derived MSA fibrils robustly seed intracellular alpha-synuclein in HEK293T biosensor cells^21. […] Cells were imaged 48 hours and the number of fluorescent puncta per sample well was quantified.
HEK293T biosensor cells stably expressing YFP-fused A53T mutant alpha-synuclein, developed and provided by the lab of Marc Diamond at UTSW were used. Cells were grown in DMEM (Life Technologies, cat. 11965092) with FBS (10% vol/vol; Life Technologies, cat. A3160401), penicillin/streptomycin (1%; Life Technologies, cat. 15140122), and Glutamax (1%; Life Technologies, cat. 35050061), at 37° C. and 5% CO2 in a humidified incubator. Compounds were incubated with recombinant or patient-derived alpha-synuclein fibrils for 48 hours in OptiMEM media then applied to ˜70% confluent biosensor cells. Prior to adding to cells, the coincubated compound/fibril solution was sonicated for 5 minutes in a cuphorn water bath, then mixed for 20 minutes with Lipofectamine 2000 in OptiMEM (1:20 dilution) for 20 minutes. 10 uL of the inhibitor/fibril+Lipofectamine mixture was added to 90 uL of cells plated in black 96-well tissue culture plates in triplicate for each concentration of compound tested. The number of seeded aggregates was quantified using a Celigo Image Cytometer (Nexcelom) in the YFP channel. Images were processed in ImageJ, background fluorescence from unseeded cells was subtracted, and the number of particles per image were counted using the Particle Analyzer function. The quantity of aggregates in each well was normalized to cell confluence. Standard deviation between triplicates and a nonlinear regression curve was used to calculate IC50 values for dose response curves. High quality fluorescent images were obtained using a ZEISS Axio Observer D1 fluorescence microscope in the YFP channel. […]

[2] = target: T2, recombinant alpha-synuclein fibrils (Homo sapiens, UniProt P37840); experiment: Thioflavin T fluorescence of alpha-synuclein fibrils; type: biochemical; details: equimolar 100 μM:100 μM, 48 hours at 37° C. in 1×PBS
T2 construct: made in house; host or cells: E. coli BL21(DE3) Gold
Method: Both compounds were incubated with equimolar ratios of recombinant alpha-synuclein fibrils (100 μM:100 μM) for 48 hours at 37° C. in 1×PBS. After incubation, Thioflavin T (ThT), a fluorescent marker of amyloid fibrils, was added to the samples and ThT fluorescence was measured. EGCG was used as a positive control for comparison. […] Next, transmission electron microscopy (EM) was performed for each sample. […] To obtain a quantitative evaluation of fibril reduction, fibrils were first incubated for 72 hours with compound, then 10 micrographs from random grid points were taken for each sample, and the numbers of fibrils per image were counted (FIG. 5c). […] Western blot analysis, staining for alpha-synuclein, was performed for fibril samples incubated with compounds for 48 hours (FIG. 5d). For untreated alpha-synuclein fibrils, we see a prominent band at 14 kDa corresponding with protein monomer. We also observe a large smear of higher molecular weight alpha-synuclein species, likely corresponding to oligomers or small fibrils, and a dark band at the top of the gel likely from larger fibrils. […] These physical and chemical properties are more predictive of oral bioavailability and central nervous system penetration compared to EGCG, making them more viable candidates for further drug development.
Compounds were incubated quiescently with fibril samples (both recombinant and brain-derived) for 72 hours at 37° C.

[3] = target: T3, recombinant alpha-synuclein fibrils seeding HEK293T cells expressing YFP-fused A53T alpha-synuclein (Homo sapiens, UniProt P37840); experiment: Alpha-synuclein biosensor cell seeding assay, recombinant fibrils; type: cell-based; set-up: number of fluorescent puncta (seeded aggregates): dose or concentration left out as unconfirmed; details: for number of fluorescent puncta (seeded aggregates): 48 hours pre-incubation
T3 construct: made in house; host or cells: seed: E. coli BL21(DE3) Gold; reporter: stably transfected HEK293T cells from the Marc Diamond lab
Source text: It is thought that alpha-synuclein pathology propagates throughout the brain via a prion-like seeding mechanism^20. Alpha-synuclein aggregates in one cell can fragment and spread to neighboring cells, where they seed the aggregation of soluble protein. Molecules able to disaggregate pre-formed fibrils may be able to interrupt this process. To that end, we assessed if both compounds could mitigate intracellular seeding of αSyn fibrils using alpha-synuclein biosensor cells-HEK293T cells expressing A53T mutant alpha-synuclein fused with yellow fluorescent protein (YFP). At baseline, the fluorescently labeled alpha-synuclein remains soluble within the cell, visible as diffuse fluorescence. However, the liposome-mediated transduction of exogenous αSyn fibrils into the cells induces aggregation of the endogenous protein, and the aggregates can be visualized and quantified as fluorescent puncta within the cell.
HEK293T biosensor cells stably expressing YFP-fused A53T mutant alpha-synuclein, developed and provided by the lab of Marc Diamond at UTSW were used. […] Prior to adding to cells, the coincubated compound/fibril solution was sonicated for 5 minutes in a cuphorn water bath, then mixed for 20 minutes with Lipofectamine 2000 in OptiMEM (1:20 dilution) for 20 minutes. 10 uL of the inhibitor/fibril+Lipofectamine mixture was added to 90 uL of cells plated in black 96-well tissue culture plates in triplicate for each concentration of compound tested. The number of seeded aggregates was quantified using a Celigo Image Cytometer (Nexcelom) in the YFP channel. Images were processed in ImageJ, background fluorescence from unseeded cells was subtracted, and the number of particles per image were counted using the Particle Analyzer function. The quantity of aggregates in each well was normalized to cell confluence. Standard deviation between triplicates and a nonlinear regression curve was used to calculate IC50 values for dose response curves. High quality fluorescent images were obtained using a ZEISS Axio Observer D1 fluorescence microscope in the YFP channel.

Neuro2a cells = experiment: MTT cytotoxicity assay in Neuro2a cells; type: cell-based; details: final small molecule concentration of 10 μM
Method: 90 μL of Neuro2a cells were plated on clear 96 well plates (Falcon 353072) at 6000 cells per well and given 24 hours to adhere to the plate. Subsequent treatment consisted of PHF samples that were coincubated with or without 100 μM of small molecules for 48 hours at 37° C., with 10 μL applied per well for a final small molecule concentration of 10 μM. After another 24-hour incubation at 37° C., 20 μL of Thiazolyl Blue Tetrazolium Bromide MTT dye (Sigma; 5 mg/mL stock in DPBS) was added to each well and further incubated for 3.5 hours at 37° C. Assay was arrested by replacement of all media with 100% DMSO and transfer to a SpectraMax MF reader. Background 700 nm readings were subtracted from the absorbance readings at 570 nm. Cells treated with 100% DMSO were designated as 0% viable and those treated only with vehicle were designated as 100% viable. Other well readings were normalized to these values.

SMILES	intracellular seeding by MSA brain fibrils [1]	ThT signal [2]	number of fluorescent puncta (seeded aggregates) [3]	seeding at low compound concentrations [3]	neuronal cytotoxicity of compound alone (Neuro2a cells)
Cc1cccc(C)c1NC(=O)Cn1nc(Cc2ccccc2)c2ccccc2c1=O [CNS-11g, 2-(4-benzyl-1-oxophthalazin-2-yl)-N-(2,6-dimethylphenyl)acetamide]	very significant reduction in intracellular seeding	reduction in ThT signal	dose-dependent reduction in aggregates	not seen	–
O=C(O[C@@H]1Cc2c(O)cc(O)cc2O[C@@H]1c1cc(O)c(O)c(O)c1)c1cc(O)c(O)c(O)c1 [EGCG, epigallocatechin gallate]	very significant reduction in intracellular seeding	reduction in ThT signal	dose-dependent reduction	–	no significant cytotoxicity
Cc1cc(C)c(NC(=O)Cn2nc3c4c(cccc4c2=O)-c2ccccc2-3)c(C)c1 [CNS-11, N-mesityl-2-(3-oxoindeno[1,2,3-de]phthalazin-2(3H)-yl)acetamide]	very significant reduction in intracellular seeding	reduction in ThT signal	dose-dependent reduction in aggregates	initial increase of seeding	Apart from CNS-11
